Laboratory results taken from ChEMBL document CHEMBL1133460, “Synthesis and biological evaluation of certain alpha,beta-unsaturated ketones and their corresponding fused pyridines as antiviral and cytotoxic agents” (J Med Chem, 2000).
In brackets after ≈: the same amount, converted by molar mass. Several values for one entry are separate records, joined by “and”; a condition that tells them apart may be missing. Identical values can stand only once.

Key:
[1] = test system: Panel CNS (Carcinoma cell lines); assay: In vitro growth inhibitory concentration against CNS cancer cell lines; format: functional; settings: Homo sapiens
[2] = test system: Panel melanoma (Carcinoma cell lines); assay: In vitro median growth inhibitory concentration against melanoma cell lines; format: functional; settings: Homo sapiens
Homo sapiens = organism: Homo sapiens; assay: Selectivity ratio between the full panel MG-MID and leukemia subpanel MG-MID was determined.; format: functional
Ovarian cancer cell line [3] = assay: In vitro median growth inhibitory concentration against ovarian cancer cell lines; format: functional; settings: Homo sapiens
Human alphaherpesvirus 1 [4] = assay: 50% loss of the monolayer present around the viral plaques in uM; format: functional, organism-based
[5] = test system: Panel prostate (Carcinoma cell lines); assay: In vitro median growth inhibitory concentration against prostate cancer cell lines; format: functional; settings: Homo sapiens
Human alphaherpesvirus 1 [6] = assay: Minimum antiviral concentration proved to be lethal to viral population in ug/mL.; format: functional
[7] = test system: Panel melanoma (Carcinoma cell lines); assay: In vitro growth inhibitory concentration against melanoma cancer cell lines; format: functional; settings: Homo sapiens
[8] = test system: Panel leukemia (Carcinoma cell lines); assay: In vitro median growth inhibitory conc. against leukemia was estimated.; format: functional; settings: Homo sapiens
Human alphaherpesvirus 1 [9] = assay: Minimum antiviral concentration proved to be lethal to viral population in uM; format: functional
[10] = test system: Panel CNS (Carcinoma cell lines); assay: In vitro median growth inhibitory concentration against CNS cancer cell lines; format: functional; settings: Homo sapiens
Human alphaherpesvirus 1 [11] = assay: In vitro antiviral activity against Herpes Simplex-1 virus (HSV-1) expressed as percent reduction in the number of viral plaques; format: functional; set-up: concentration or dose not given beside the values
[12] = test system: Panel renal (Carcinoma cell lines); assay: In vitro median growth inhibitory concentration against renal cancer cell lines; format: functional; settings: Homo sapiens
Human alphaherpesvirus 1 [13] = assay: concentration caused 50% loss of the monolayer present around the viral plaques in ug/mL.; format: functional, organism-based
Breast cancer cell line [14] = assay: (§1) In vitro median growth inhibitory concentration against breast cancer cell lines; format: functional; settings: Homo sapiens
[15] = Full panel mean-graph midpoint (MG-MID)
Breast cancer cell line [16] = assay: In vitro growth inhibitory concentration against breast cancer cell lines; format: functional; settings: Homo sapiens
MT4 = assay: In vitro inhibitory activity against uninfected T4 cells; format: functional, cell-based; settings: Homo sapiens
Tumor cell line [17] = assay: In vitro growth inhibitory concentration against non-small-cell lung cancer cell lines; format: functional; settings: Homo sapiens
[18] = test system: Panel renal (Carcinoma cell lines); assay: In vitro growth inhibitory concentration against renal cancer cell lines; format: functional; settings: Homo sapiens
NSCLC = assay: In vitro median growth inhibitory concentration against non-small-cell lung cancer; format: functional; settings: Homo sapiens
[19] = test system: Panel prostate (Carcinoma cell lines); assay: In vitro growth inhibitory concentration against prostate cancer cell lines; format: functional; settings: Homo sapiens
[20] = In vitro growth inhibitory concentration against colon cancer tumor cell lines; format: functional; settings: Homo sapiens
[21] = test system: Human immunodeficiency virus 1; assay: In vitro effective concentration against HIV-1 cytopathic effect in T4 cells; Inactive; format: functional, organism-based
[22] = In vitro median growth inhibitory concentration against colon cancer cell lines; format: functional; settings: Homo sapiens
[23] = test system: Panel leukemia (Carcinoma cell lines); assay: In vitro growth inhibitory concentration against leukemia tumor cell lines; format: functional; settings: Homo sapiens
Ovarian cancer cell line [24] = assay: In vitro growth inhibitory concentration against ovarian cancer cell lines; format: functional; settings: Homo sapiens
Tumor cell line [25] = assay: as §1; format: functional; settings: Homo sapiens

Cc1ccc(/C=C2\CN(C)CC3=C2N=C(S)NC3c2ccc(C)cc2)cc1 (stereo not given)
TGI [1]: 94.1 µM
GI50 [2]: 58.8 µM
Ratio (Homo sapiens): 1.8
GI50 (Ovarian cancer cell line [3]): 51.2 µM
IC50 (Human alphaherpesvirus 1 [4]): 0.19 µM
GI50 [5]: 38.3 µM
MAC (Human alphaherpesvirus 1 [6]): 0.1 µg/mL
TGI [7]: > 100 µM
GI50 [8]: 19.2 µM
MAC (Human alphaherpesvirus 1 [9]): 0.27 µM
GI50 [10]: 53.7 µM
Reduction (Human alphaherpesvirus 1 [11]): 45%
GI50 [12]: 60.8 µM
IC50 (Human alphaherpesvirus 1 [13]): 0.07 µg/mL (≈ 0.186 µM)
GI50 (Breast cancer cell line [14]): 39.4 µM
MG-MID [15]: 34.5 µM and 86.5 µM
TGI (Breast cancer cell line [16]): 88.8 µM
IC50 (MT4): 27.6 µM
TGI (Tumor cell line [17]): 89.9 µM
TGI [18]: 96.9 µM
GI50 (NSCLC): 59.6 µM
TGI [19]: > 100 µM
TGI [20]: 83.6 µM
EC50 [21]: Not Active
GI50 [22]: 37.1 µM
TGI [23]: 62.3 µM
TGI (Ovarian cancer cell line [24]): 94 µM

COc1ccc(/C=C2\CN(C)CC3C2=NN(c2ccccc2)C3c2ccc(OC)cc2)cc1 (stereo not given)
GI50 [2]: 77.7 µM
Ratio (Homo sapiens): 0.7
GI50 (Ovarian cancer cell line [3]): 80.7 µM
GI50 [5]: > 100 µM
GI50 [8]: > 100 µM
GI50 [10]: 63.1 µM
GI50 [12]: 54.7 µM
GI50 (Tumor cell line [25]): 91.8 µM
MG-MID [15]: 72.9 µM
IC50 (MT4): > 200 µM
GI50 (NSCLC): 82.1 µM
EC50 [21]: Not Active
GI50 [22]: > 100 µM
